For data set [1] the following is noted: Crystal; DTA.
A short description of data set [2]: Molar enthalpy of transition or fusion. The note with it: Crystal; DSC.

Experimental findings from the NIST ThermoML archive (doi:10.1021/je201354k) are described below.

± gives the expanded uncertainty stated by the source.

Turning to `N[C@@H](Cc1ccccc1)C(=O)O` [L-phenylalanine], in data set [1], the Triple point temperature is listed as 556.15 ± 0.5 K. Besides, in data set [2], the “Molar enthalpy of transition or fusion” value was found to be 4.41 ± 0.136 kcal/mol.
